4 compounds from ChEMBL document CHEMBL4052598, “Discovery of C-Glycosylpyranonaphthoquinones in Streptomyces sp. MBT76 by a Combined NMR-Based Metabolomics and Bioinformatics Workflow” (2017) can be followed below.

The source made the active and inactive calls. The calls are words filed in the database; no cut-off is given here.

Common to all, as to type: functional
One assay has as its system Escherichia coli. Put plainly: Antimicrobial activity against Escherichia coli JM109 assessed as growth inhibition zone after 18 hrs by disc diffusion method. For orientation: Agar diffusion results depend on both activity and mobility in agar.
Another assay relates to Bacillus subtilis. Put plainly: Antimicrobial activity against Bacillus subtilis subsp. subtilis str. 168 assessed as growth inhibition zone after 18 hrs by disc diffusion method.
The subject of a further assay is Staphylococcus aureus. Nature of the assay: Antimicrobial activity against Staphylococcus aureus CECT976 assessed as growth inhibition zone after 18 hrs by disc diffusion method.
A further assay deals with Pseudomonas aeruginosa. Put plainly: Antimicrobial activity against Pseudomonas aeruginosa PAO1 assessed as growth inhibition zone after 18 hrs by disc diffusion method.

Turning to `CN[C@H]1CC[C@H](c2ccc(O)c3c2C(=O)C24OC2([C@@H](C)O[C@H](CC(=O)O)[C@@H]4O)[C@H]3O)O[C@@H]1C` (stereo partly specified), the inhibition entry in the assay on Escherichia coli and with Pseudomonas aeruginosa was “inactive” each time. Also, the inhibition result with Bacillus subtilis and in the assay with Staphylococcus aureus was “Active” in each case.

Take `CN[C@@H]1[C@@H](O[C@H]2O[C@H](CO)[C@@H](N)[C@H](O)[C@H]2O)OC2C[C@@H](N)[C@@H](O[C@H]3[C@H](O)[C@@H](O)[C@H](N)C[C@@H]3N)OC2[C@@H]1O` (stereo partly specified) [APRAMYCIN]: the “inhibition zone (IZ)” value came out at 7 mm with Escherichia coli, 10 mm in the assay on Bacillus subtilis, 7 mm in the assay with Staphylococcus aureus and 15 mm in the assay with Pseudomonas aeruginosa.

As to `CC1(C)S[C@@H]2[C@H](NC(=O)[C@H](N)c3ccccc3)C(=O)N2[C@H]1C(=O)O` [AMPICILLIN], the “inhibition zone (IZ)” value with Escherichia coli stood at 20 mm; with Bacillus subtilis, 23 mm; with Staphylococcus aureus, 10 mm; in the assay on Pseudomonas aeruginosa it was 7 mm.

On to `CN[C@H]1CC[C@H](c2ccc(O)c3c2C(=O)C24OC2([C@@H](C)O[C@@H]2CC(=O)O[C@@H]24)[C@H]3O)O[C@@H]1C` (stereo partly specified), for which the inhibition entry with Escherichia coli and with Pseudomonas aeruginosa was “inactive” in each case. In addition, the inhibition result in the assay with Bacillus subtilis and in the assay with Staphylococcus aureus was “Active” in each case.
